From patent publication US20030129189A1, “Tumor necrosis factor-gamma” (priority 1994, published 2003)

How the values were obtained:
[1] = test system: HL-60; experiment: TNF-gamma activity on HL-60 cells (incl. cell adhesion); type: cell-based, human; design: key to Proliferation / Differentiation / Adhesion: The numbers of “+” indicate the relative level of activities.; ++: The numbers of “+” indicate the relative level of activities.; +++: The numbers of “+” indicate the relative level of activities.; “−” indicates no detected activity at the concentration range tested
Protocol: The adherent target cells were prepared from confluent cultures by trypsinization in PBS, and non-adherent target cells were harvested from stationary cultures and washed once with medium. Target cells were suspended at 3×10^5 cells/ml in medium containing 10% FCS. 0.1 ml aliquots were dispensed into 96-well flat-bottomed microtiter plates containing 0.1 ml serially diluted test samples of cells (WEHI 164 and L929). Incubation was continued for 70 hours. TNF-alpha, TNF-beta and bacterially-produced TNF-gamma were added at a 0.5 μg/ml concentration. The cytotoxicity and proliferation activity was quantified using an MTS assay performed by the addition of 20 μl of MTS and phenazine methosulfate (PMS) solution to each well. After a three hour incubation, the OD at 492 nm was measured by an ELISA plate reader. The OD492 is proportional to the number of viable cells in the wells. The percent of cytotoxicity was calculated as follows: […]. The photographs were taken after 72 hours.
To test adhesion ability of TNF-gamma, HL-60 cells were used and cell adhesion and cell-cell contact were measured by observation under the microscope and scored subjectively by two independent investigators. FIG. 11 illustrates the ability of TNF-gamma to induce cell adhesion. Cultures which were not treated with TNF-gamma contained cells which had spread throughout the culture dish.

[2] = test system: WEHI 164 cells; experiment: Measurement of apoptosis (nucleosome ELISA); type: cell-based, mouse; conditions: increasing amounts (FIG. 12)
Protocol: In a first incubation step, anti-histone antibody was fixed adsorptively on the wall of a microtiter plate module. Subsequently, non-specific binding sites on the wall were saturated by treatment with incubation buffer (e.g., blocking solution). During the second incubation step, the nucleosomes contained in the WEHI 164 cell sample treated with the TNF-alpha, TNF-beta or bacterially-produced TNF-gamma were bound via their histone components to the immobilized anti-histone antibody. In the third incubation step, anti-DNA-peroxidase (POD) reacted with the DNA component of the nucleosomes. After removal of all unbound peroxidase conjugate by a washing step, the amount of peroxidase retained in the immunocomplex was determined spectrophotometrically using the substrate ABTS (2,2′-azino-di-[3-ethylbenzthiazoline sulfonate]). Anti-histone antibody reacted with the histones H1, H2A, H2B, H3, and H4 from the sample. Anti-DNA POD antibody bound to single- and double-stranded DNA. Therefore, the ELISA allowed the detection of mono- and oligonucleosomes and may be applied to measure apoptotic cell death. The level of cell death was measured by the amount of cytoplasmic histone-associated DNA fragments which was indicated by the ratio of the absorbances observed at 405 and 490 nm (A405/A490). […]

[3] = test system: NF-kappaB in U937 cells; experiment: NF-kappaB-SEAP reporter assay; type: cell-based; conditions: 72 hr
Protocol: [Bovine pulmonary artery endothelial cells were incubated with various concentrations of TNF-gamma for 48 hours. The apoptosis was assessed by nuclear staining with Hoechst 33342 fluorescence dye (10 mg/ml).] […] [U937 cells were transfected using lipofectamine (following manufacturer's instruction) with 0.2 mg of reporter plasmid (NF-kappaB-SEAP). The transfected U937 cells were collected and added to the 96-well plate ([…]/well) with various concentrated of TNF-gamma. After Incubation at 37° C. for 72 hr, the NF-kappaB activity was measured with luminometer at absorbance of 450 nm.]
Consistent with the Northern blot analysis, peripheral blood mononuclear cells (PBMC) and human umbilical vein endothelial cells (HUVEC) express TNF-gamma on the cell surface by immunostaining with antibody to TNF-gamma. […] The cells were incubated for 30 min at 40° C. with antibody (10 mg/ml ) to TNF-gamma to detected expression of TNF-gamma on cell surface, with DR3-Fc or LTbR-Fc (10 mg/ml) for receptor and ligand binding in the binding buffer (HBSS containing 10% BSA, 20 mM HEPES, pH 7.2, 0.02% NaN3). […] Fluorescence was analyzed by a FACscan flow cytometer (Becton Dickinson, Mountain View, Calif.).] […] After incubation at 37° C. for 72 hr, the NF-kB activity was measured with luminometer at absorbance of 450 nm.] […]

[4] = HL-60, human promyelocytic leukemia

TNF-gamma: new member of the tumor necrosis factor family; the term refers to TNF-gamma-alpha and/or TNF-gamma-beta
Adhesion [1, 4]: ++
Differentiation [1, 4]: −
Proliferation [1, 4]: −
cell adhesion and cell-cell contact ([1]; HL-60 cells, observation under the microscope (FIG. 11)): clearly aggregated together
apoptosis (cytoplasmic histone-associated DNA fragments, A405/A490) [2]: increasingly high levels of apoptosis
NF-kappaB activation [3]: induces nuclear factor-kappaB (NF-kappaB)
